Laboratory results from ChEMBL document CHEMBL3991601, “The target landscape of clinical kinase drugs” (Science, 2017).
Activity calls are given as the source filed them.

Assays:
ADP/ATP translocase 2 = molecular target: T1, ADP/ATP translocase 2 (Homo sapiens, UniProt P05141)
T1 sequence (P05141 whole entry): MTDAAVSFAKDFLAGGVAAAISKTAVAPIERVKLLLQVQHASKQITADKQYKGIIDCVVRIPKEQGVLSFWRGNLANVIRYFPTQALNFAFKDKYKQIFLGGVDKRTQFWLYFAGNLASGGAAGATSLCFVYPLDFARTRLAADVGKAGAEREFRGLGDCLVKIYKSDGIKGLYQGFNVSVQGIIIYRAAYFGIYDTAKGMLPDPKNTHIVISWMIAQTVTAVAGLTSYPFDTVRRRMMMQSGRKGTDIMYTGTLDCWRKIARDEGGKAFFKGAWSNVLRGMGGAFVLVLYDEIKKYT

[1] = molecular target: T2, Serine/threonine-protein kinase STK11 (Homo sapiens, UniProt Q15831)
T2 sequence (Q15831 whole entry): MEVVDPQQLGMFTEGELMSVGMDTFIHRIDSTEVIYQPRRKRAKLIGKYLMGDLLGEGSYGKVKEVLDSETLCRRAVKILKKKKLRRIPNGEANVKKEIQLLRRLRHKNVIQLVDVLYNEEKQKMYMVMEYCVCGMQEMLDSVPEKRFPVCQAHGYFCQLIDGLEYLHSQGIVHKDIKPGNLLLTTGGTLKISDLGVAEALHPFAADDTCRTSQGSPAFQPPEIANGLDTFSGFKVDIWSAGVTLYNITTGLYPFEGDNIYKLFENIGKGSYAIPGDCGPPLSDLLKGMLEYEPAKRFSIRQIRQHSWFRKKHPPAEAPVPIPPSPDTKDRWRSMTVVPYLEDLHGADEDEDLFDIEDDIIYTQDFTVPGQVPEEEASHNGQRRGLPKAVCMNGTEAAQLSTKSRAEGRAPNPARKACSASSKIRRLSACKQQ

[2] = molecular target: Serine/threonine-protein kinase PAK 6 (Homo sapiens, UniProt Q9NQU5)
[3] = molecular target: Glycogen synthase kinase-3 beta (Homo sapiens, UniProt P49841)
[4] = molecular target: Serine/threonine-protein kinase/endoribonuclease IRE1 (Homo sapiens, UniProt O75460)
[5] = molecular target: Mitogen-activated protein kinase 11 (Homo sapiens, UniProt Q15759)
[6] = molecular target: Protein-tyrosine kinase 2-beta (Homo sapiens, UniProt Q14289)
[7] = molecular target: MAP/microtubule affinity-regulating kinase 3 (Homo sapiens, UniProt P27448)
[8] = molecular target: T3, Serine/threonine-protein kinase NLK (Homo sapiens, UniProt Q9UBE8)
T3 sequence (Q9UBE8 whole entry): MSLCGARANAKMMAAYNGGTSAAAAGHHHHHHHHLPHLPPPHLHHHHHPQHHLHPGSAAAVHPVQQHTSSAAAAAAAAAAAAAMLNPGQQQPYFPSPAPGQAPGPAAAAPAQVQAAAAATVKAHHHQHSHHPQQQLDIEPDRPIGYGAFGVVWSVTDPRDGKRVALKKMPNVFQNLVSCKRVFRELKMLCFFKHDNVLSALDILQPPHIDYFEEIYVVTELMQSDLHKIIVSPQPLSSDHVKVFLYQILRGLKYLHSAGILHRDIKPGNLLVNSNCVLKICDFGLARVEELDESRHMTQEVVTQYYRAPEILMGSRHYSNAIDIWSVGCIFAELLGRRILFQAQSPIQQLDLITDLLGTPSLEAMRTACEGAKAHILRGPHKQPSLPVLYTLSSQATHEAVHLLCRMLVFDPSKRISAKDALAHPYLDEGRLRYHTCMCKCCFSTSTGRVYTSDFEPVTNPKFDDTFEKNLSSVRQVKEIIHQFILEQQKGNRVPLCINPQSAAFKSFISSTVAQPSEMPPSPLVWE

Septin-9 = molecular target: T4, Septin-9 (Homo sapiens, UniProt Q9UHD8)
T4 sequence (Q9UHD8 whole entry): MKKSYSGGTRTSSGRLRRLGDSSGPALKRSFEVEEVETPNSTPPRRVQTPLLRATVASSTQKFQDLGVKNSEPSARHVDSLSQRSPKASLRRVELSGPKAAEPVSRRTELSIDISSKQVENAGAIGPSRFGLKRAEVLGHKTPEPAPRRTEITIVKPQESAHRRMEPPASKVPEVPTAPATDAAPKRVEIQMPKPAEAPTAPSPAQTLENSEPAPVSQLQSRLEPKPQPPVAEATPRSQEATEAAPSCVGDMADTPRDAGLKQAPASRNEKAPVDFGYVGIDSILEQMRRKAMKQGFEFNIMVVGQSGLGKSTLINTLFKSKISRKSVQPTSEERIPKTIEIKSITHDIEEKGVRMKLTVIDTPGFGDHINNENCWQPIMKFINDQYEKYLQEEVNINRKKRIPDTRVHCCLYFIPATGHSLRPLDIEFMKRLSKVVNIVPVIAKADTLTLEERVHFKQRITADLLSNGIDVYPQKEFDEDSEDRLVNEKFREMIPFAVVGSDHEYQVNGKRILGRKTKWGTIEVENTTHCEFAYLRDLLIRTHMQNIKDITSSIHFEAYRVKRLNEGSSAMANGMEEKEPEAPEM

[9] = molecular target: T5, Peroxisomal acyl-coenzyme A oxidase 1 (Homo sapiens, UniProt Q15067)
T5 sequence (Q15067 whole entry): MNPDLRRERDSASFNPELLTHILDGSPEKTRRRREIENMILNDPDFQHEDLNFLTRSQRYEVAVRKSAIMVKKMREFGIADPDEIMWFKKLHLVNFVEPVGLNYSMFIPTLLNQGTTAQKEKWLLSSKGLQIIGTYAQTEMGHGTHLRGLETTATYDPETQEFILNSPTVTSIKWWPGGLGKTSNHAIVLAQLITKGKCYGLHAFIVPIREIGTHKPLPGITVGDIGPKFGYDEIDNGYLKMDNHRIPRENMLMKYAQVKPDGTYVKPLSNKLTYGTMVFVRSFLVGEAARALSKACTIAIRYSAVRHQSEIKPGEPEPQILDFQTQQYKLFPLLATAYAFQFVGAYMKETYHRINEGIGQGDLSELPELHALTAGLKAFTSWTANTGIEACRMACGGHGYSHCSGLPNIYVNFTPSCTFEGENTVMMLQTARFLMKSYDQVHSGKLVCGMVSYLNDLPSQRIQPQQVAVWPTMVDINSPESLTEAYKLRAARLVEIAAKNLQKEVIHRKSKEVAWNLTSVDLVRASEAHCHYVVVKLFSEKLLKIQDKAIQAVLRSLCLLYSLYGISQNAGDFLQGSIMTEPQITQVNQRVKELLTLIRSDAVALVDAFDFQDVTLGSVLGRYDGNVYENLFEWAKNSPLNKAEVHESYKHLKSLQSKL
Note: in the data inactive means no Kd found up to 30 µM.

Sequence of Serine/threonine-protein kinase/endoribonuclease IRE1 (O75460 whole entry): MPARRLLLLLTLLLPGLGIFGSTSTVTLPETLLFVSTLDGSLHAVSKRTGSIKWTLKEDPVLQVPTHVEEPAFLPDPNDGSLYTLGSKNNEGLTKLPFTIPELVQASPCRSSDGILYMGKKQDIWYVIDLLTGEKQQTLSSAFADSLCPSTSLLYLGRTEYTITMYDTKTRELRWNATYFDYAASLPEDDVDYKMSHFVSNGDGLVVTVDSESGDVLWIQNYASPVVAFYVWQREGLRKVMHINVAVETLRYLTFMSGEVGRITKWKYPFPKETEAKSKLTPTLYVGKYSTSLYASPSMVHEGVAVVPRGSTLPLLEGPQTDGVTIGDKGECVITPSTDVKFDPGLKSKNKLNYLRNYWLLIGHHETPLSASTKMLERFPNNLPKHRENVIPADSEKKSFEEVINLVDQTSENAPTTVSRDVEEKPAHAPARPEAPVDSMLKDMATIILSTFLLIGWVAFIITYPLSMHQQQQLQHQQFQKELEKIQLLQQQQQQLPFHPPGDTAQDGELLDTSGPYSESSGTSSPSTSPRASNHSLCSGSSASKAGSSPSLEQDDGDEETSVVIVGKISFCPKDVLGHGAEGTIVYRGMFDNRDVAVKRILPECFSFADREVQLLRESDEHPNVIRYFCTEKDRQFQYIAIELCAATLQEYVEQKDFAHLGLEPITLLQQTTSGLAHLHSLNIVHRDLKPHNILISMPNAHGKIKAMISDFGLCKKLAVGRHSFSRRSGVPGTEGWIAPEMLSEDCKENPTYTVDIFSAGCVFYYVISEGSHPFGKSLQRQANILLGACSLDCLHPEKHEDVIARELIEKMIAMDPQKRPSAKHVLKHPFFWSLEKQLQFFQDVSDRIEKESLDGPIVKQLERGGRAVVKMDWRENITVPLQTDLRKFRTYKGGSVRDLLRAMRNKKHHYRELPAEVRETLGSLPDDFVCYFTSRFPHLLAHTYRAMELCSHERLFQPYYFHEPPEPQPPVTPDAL
Sequence of Mitogen-activated protein kinase 11 (Q15759 whole entry): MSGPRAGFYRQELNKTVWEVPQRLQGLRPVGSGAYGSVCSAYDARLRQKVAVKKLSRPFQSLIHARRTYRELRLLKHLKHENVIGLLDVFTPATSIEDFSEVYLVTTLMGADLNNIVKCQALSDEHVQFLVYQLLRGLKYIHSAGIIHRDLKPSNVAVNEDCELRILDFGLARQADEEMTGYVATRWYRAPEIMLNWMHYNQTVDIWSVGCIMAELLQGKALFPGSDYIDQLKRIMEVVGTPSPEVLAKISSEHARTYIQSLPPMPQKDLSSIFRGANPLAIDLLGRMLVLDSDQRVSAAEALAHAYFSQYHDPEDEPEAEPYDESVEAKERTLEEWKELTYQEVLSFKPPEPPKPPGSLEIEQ
Sequence of Serine/threonine-protein kinase PAK 6 (Q9NQU5 whole entry): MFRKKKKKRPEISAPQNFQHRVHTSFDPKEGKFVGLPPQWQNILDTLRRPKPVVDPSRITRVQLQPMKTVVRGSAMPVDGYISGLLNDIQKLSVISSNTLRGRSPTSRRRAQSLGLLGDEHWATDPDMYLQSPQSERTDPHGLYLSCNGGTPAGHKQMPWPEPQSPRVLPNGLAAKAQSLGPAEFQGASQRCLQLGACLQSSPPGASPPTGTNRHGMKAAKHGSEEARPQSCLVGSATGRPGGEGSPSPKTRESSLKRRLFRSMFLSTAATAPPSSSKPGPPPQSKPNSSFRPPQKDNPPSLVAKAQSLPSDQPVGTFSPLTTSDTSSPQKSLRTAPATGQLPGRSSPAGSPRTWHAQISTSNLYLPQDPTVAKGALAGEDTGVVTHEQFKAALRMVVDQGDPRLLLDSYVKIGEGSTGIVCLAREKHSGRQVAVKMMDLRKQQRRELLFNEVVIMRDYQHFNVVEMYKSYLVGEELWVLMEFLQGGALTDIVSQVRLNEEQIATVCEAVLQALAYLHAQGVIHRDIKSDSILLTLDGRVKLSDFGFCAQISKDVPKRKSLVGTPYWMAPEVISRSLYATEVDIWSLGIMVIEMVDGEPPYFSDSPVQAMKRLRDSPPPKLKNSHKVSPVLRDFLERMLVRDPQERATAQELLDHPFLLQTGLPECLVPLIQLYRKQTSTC
Sequence of Protein-tyrosine kinase 2-beta (Q14289 whole entry): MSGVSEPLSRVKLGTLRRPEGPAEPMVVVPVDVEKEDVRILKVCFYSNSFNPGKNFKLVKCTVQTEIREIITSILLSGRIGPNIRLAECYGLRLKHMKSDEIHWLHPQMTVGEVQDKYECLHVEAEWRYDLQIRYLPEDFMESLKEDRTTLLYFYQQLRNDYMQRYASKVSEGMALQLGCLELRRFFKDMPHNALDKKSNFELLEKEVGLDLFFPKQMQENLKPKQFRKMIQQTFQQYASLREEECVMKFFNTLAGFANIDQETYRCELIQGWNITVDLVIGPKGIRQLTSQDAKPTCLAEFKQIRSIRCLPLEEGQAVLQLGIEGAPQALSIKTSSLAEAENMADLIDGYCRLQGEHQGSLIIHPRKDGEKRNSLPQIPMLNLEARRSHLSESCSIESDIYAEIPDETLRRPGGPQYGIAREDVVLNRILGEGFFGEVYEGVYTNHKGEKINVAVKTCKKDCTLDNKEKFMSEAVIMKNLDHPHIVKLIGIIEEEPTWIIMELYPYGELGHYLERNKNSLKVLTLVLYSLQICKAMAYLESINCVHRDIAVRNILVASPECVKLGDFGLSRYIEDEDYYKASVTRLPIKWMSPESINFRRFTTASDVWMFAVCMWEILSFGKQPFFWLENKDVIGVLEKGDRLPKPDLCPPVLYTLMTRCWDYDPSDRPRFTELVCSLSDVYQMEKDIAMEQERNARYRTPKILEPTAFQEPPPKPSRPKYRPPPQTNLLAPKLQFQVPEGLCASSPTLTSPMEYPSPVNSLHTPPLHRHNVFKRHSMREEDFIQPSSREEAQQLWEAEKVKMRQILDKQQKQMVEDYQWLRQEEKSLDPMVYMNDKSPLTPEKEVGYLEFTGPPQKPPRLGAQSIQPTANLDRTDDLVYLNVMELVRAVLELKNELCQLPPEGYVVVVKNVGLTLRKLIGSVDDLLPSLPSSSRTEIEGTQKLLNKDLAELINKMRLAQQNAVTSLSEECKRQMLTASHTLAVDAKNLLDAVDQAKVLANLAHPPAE
Sequence of Glycogen synthase kinase-3 beta (P49841 whole entry): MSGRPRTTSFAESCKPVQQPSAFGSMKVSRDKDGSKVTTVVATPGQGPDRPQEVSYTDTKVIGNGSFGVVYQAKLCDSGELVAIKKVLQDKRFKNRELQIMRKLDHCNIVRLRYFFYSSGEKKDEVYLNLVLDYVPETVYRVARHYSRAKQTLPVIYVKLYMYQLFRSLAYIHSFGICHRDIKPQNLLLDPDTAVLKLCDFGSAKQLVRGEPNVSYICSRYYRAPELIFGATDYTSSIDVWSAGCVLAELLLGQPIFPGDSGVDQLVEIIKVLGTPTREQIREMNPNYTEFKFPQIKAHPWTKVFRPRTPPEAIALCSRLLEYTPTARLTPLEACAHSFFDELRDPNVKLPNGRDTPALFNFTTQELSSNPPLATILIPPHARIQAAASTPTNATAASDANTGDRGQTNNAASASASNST
Sequence of MAP/microtubule affinity-regulating kinase 3 (P27448 whole entry): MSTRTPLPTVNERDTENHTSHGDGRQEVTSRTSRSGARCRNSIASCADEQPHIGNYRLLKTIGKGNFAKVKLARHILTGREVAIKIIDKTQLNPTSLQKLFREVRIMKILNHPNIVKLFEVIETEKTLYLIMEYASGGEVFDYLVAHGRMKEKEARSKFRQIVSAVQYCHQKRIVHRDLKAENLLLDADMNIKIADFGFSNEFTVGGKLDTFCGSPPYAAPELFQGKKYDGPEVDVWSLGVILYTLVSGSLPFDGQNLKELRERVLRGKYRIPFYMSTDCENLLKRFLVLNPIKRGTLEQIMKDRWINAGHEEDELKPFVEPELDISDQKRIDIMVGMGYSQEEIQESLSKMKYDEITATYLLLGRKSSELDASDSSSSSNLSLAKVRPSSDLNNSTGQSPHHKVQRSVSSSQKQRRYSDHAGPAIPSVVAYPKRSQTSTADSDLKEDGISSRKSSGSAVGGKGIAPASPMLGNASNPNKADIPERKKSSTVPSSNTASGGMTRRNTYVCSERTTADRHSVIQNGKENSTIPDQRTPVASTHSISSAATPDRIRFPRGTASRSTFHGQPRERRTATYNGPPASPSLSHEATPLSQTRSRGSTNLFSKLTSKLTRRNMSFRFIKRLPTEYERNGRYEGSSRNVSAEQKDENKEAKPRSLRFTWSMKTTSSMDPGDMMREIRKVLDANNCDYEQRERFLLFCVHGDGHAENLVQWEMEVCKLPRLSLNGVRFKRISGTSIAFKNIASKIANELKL

SMILES | Kd (ADP/ATP translocase 2) | Kd [1] | Kd [2] | Kd [3] | Kd [4] | Kd [5] | Kd [6] | Kd [7] | Kd [8] | Kd (Septin-9) | Kd [9]
C=CC(=O)N1CCC[C@H](n2c(=O)n(-c3ccc(Oc4ccccc4)cc3)c3c(N)ncnc32)C1 | > 30 µM (inactive) | > 30 µM (inactive) | > 30 µM (inactive) | > 30 µM (inactive) | > 30 µM (inactive) | > 30 µM (inactive) | > 30 µM (inactive) | > 30 µM (inactive) | > 30 µM (inactive) | > 30 µM (inactive) | –
COc1cc(Nc2ncc3c(n2)-c2ccc(Cl)cc2C(c2c(F)cccc2OC)=NC3)ccc1C(=O)O [ALISERTIB] | > 30 µM (inactive) | > 30 µM (inactive) | > 30 µM (inactive) | – | > 30 µM (inactive) | > 30 µM (inactive) | > 30 µM (inactive) | – | > 30 µM (inactive) | > 30 µM (inactive) | > 30 µM (inactive)
COCC(=O)NC/C=C/c1ccc2ncnc(Nc3ccc(Oc4ccc(C)nc4)c(C)c3)c2c1 [CP-724714] | > 30 µM (inactive) | > 30 µM (inactive) | > 30 µM (inactive) | > 30 µM (inactive) | > 30 µM (inactive) | > 30 µM (inactive) | > 30 µM (inactive) | > 30 µM (inactive) | > 30 µM (inactive) | > 30 µM (inactive) | –
Cc1[nH]c(/C=C2\C(=O)Nc3ccccc32)c(C)c1CCC(=O)O [ORANTINIB] | > 30 µM (inactive) | – | > 30 µM (inactive) | – | – | > 30 µM (inactive) | – | – | > 30 µM (inactive) | > 30 µM (inactive) | > 30 µM (inactive)
CO[C@H]1C[C@@H]2CC[C@@H](C)[C@@](O)(O2)C(=O)C(=O)N2CCCC[C@H]2C(=O)O[C@H]([C@H](C)C[C@@H]2CC[C@@H](O)[C@H](OC)C2)CC(=O)[C@H](C)/C=C(\C)[C@@H](O)[C@@H](OC)C(=O)[C@H](C)C[C@H](C)/C=C/C=C/C=C/1C [SIROLIMUS] | > 30 µM (inactive) | > 30 µM (inactive) | – | > 30 µM (inactive) | > 30 µM (inactive) | > 30 µM (inactive) | > 30 µM (inactive) | > 30 µM (inactive) | > 30 µM (inactive) | > 30 µM (inactive) | > 30 µM (inactive)
O=C(Cc1ccc(-c2ccc(OCCN3CCOCC3)cc2)cn1)NCc1ccccc1 [TIRBANIBULIN] | > 30 µM (inactive) | > 30 µM (inactive) | – | > 30 µM (inactive) | > 30 µM (inactive) | > 30 µM (inactive) | > 30 µM (inactive) | > 30 µM (inactive) | > 30 µM (inactive) | > 30 µM (inactive) | > 30 µM (inactive)
O=C1NC(=O)[C@@H](c2cn3c4c(cccc24)CCC3)[C@@H]1c1c[nH]c2ccccc12 [TIVANTINIB] | > 30 µM (inactive) | > 30 µM (inactive) | > 30 µM (inactive) | > 30 µM (inactive) | > 30 µM (inactive) | > 30 µM (inactive) | > 30 µM (inactive) | > 30 µM (inactive) | > 30 µM (inactive) | > 30 µM (inactive) | –
C[C@@H](NC(=O)c1ncnc(N)c1Cl)c1ncc(C(=O)Nc2cc(C(F)(F)F)c(Cl)cn2)s1 [TOVORAFENIB] | > 30 µM (inactive) | > 30 µM (inactive) | > 30 µM (inactive) | > 30 µM (inactive) | > 30 µM (inactive) | 0.684 µM (active) | > 30 µM (inactive) | > 30 µM (inactive) | > 30 µM (inactive) | > 30 µM (inactive) | –
CN1C/C=C/CCOc2cccc(c2)-c2ccnc(n2)Nc2cccc(c2)C1 [ZOTIRACICLIB] | > 30 µM (inactive) | > 30 µM (inactive) | – | 0.447 µM (active) | > 30 µM (inactive) | > 30 µM (inactive) | > 30 µM (inactive) | > 30 µM (inactive) | > 30 µM (inactive) | > 30 µM (inactive) | > 30 µM (inactive)

More lines, now with the values ahead:

Kd (ADP/ATP translocase 2) | Kd [1] | Kd [2] | Kd [3] | Kd [4] | Kd [5] | Kd [6] | Kd [7] | Kd [8] | Kd (Septin-9) | Kd [9] | SMILES
> 30 µM (inactive) | > 30 µM (inactive) | > 30 µM (inactive) | > 30 µM (inactive) | > 30 µM (inactive) | > 30 µM (inactive) | > 30 µM (inactive) | > 30 µM (inactive) | > 30 µM (inactive) | > 30 µM (inactive) | – | Nc1ncnc2c1c(-c1cccc(OCc3ccccc3)c1)cn2[C@H]1C[C@@H](CN2CCC2)C1 [AEW-541]
> 30 µM (inactive) | > 30 µM (inactive) | > 30 µM (inactive) | > 30 µM (inactive) | > 30 µM (inactive) | > 30 µM (inactive) | > 30 µM (inactive) | > 30 µM (inactive) | > 30 µM (inactive) | > 30 µM (inactive) | – | COc1ccc(S(=O)(=O)N(C(C)=O)c2ccccc2/C=C/c2cc[n+]([O-])cc2)cc1 [HMN-214]
> 30 µM (inactive) | > 30 µM (inactive) | > 30 µM (inactive) | > 30 µM (inactive) | > 30 µM (inactive) | > 30 µM (inactive) | > 30 µM (inactive) | > 30 µM (inactive) | > 30 µM (inactive) | > 30 µM (inactive) | – | NC1(c2ccc(-c3nc4ccn5c(=O)[nH]nc5c4cc3-c3ccccc3)cc2)CCC1 [MK-2206]
> 30 µM (inactive) | > 30 µM (inactive) | > 30 µM (inactive) | – | > 30 µM (inactive) | > 30 µM (inactive) | – | – | > 30 µM (inactive) | > 30 µM (inactive) | > 30 µM (inactive) | NC(=O)c1c(OCc2c(F)cc(Br)cc2F)nsc1NC(=O)NCCCCN1CCCC1 [OSI-632]
> 30 µM (inactive) | 0.434 µM (active) | 0.003 µM (active) | 0.667 µM (active) | > 30 µM (inactive) | > 30 µM (inactive) | 1.4 µM (active) | 0.105 µM (active) | > 30 µM (inactive) | > 30 µM (inactive) | – | Cc1nc(Nc2n[nH]c3c2CN(C(=O)N[C@H](CN(C)C)c2ccccc2)C3(C)C)c2sccc2n1 [PF-03758309]
